These results are taken from PubChem BioAssay AID1645868 (Buhrlage Lab, Dana-Farber Cancer Institute and Novartis …, 2021).

Each structure is given as a SMILES string. Activity calls are given as the source filed them.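 How the source made its calls: active means maximal percent inhibition of the deubiquitinase OTUD3 of at least 30% across the tested doses; inactive means the rest.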

For this assay, the target named is OTU domain-containing protein 3 (Homo sapiens) (UniProt Q5T2D3). The assay can be described thus: Validation of screening hits, potency titration, in vitro enzymatic, OTU domain-containing protein 3 DUB inhibitors (AID 1645868). The settings on record: purified OTUD3, ubiquitin-rhodamine cleavage fluorescence, 2 h.
Sequence of OTU domain-containing protein 3 (Homo sapiens) (Q5T2D3 whole entry, looked up, the tested form may be a part): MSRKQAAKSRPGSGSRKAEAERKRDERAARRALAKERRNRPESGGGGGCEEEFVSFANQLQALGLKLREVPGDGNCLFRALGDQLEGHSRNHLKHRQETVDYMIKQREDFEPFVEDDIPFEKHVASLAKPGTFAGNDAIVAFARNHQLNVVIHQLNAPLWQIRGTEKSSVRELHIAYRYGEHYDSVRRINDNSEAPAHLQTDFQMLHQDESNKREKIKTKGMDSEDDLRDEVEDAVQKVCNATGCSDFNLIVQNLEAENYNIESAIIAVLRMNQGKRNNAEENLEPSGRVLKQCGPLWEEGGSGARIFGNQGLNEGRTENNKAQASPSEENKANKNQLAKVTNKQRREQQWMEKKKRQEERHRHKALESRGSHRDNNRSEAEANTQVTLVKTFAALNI
Usually IC50 stands for the concentration that inhibits the measured activity by half. As for `CCc1ccc(NC(=O)COC(=O)c2n[nH]c3ccccc23)cc1`, the IC50 was 49.8 µM.
To `CCC(C)c1ccc(-c2csc(Cn3c(CN4CCN(C)CC4)nc4ccccc4c3=O)n2)cc1` (configuration not stated) belongs 31.8 µM.
For `COc1ccc(NC(=O)c2cc(-c3cccnc3)n[nH]2)cc1Cl` the value was 17.8 µM; for `CCCC(O)CCCCCCCc1cc(O)cc(O)c1C(=O)OC(CCC)CCCCCCCc1cc(O)cc(O)c1` (configuration not stated), 36 µM.
For `Cc1ccc2nc(NC(=O)CSc3nnc(-c4ccncc4)n3C3CC3)sc2c1` the value was > 50 µM (inactive); for `Cc1cccc(NC(=O)CSc2nnc(-c3n[nH]c4c3CCC4)n2N)c1C`, 17.9 µM; for `O=C(NCc1ccc2c(c1)OCO2)c1cc(-c2cc(Cl)ccc2O)n[nH]1`, 40.7 µM.
With `c1ccc(-n2nnc(-c3noc(-c4cccnc4)n3)c2-c2ccncc2)cc1`, the concentration for half-maximal inhibition (IC50) is 24 µM.
In the case of `COc1cccc(NC(=O)c2cnc3c(c2)c(=O)n(C)c(=O)n3C)c1`, the half-maximal inhibitory concentration (IC50) is 19.9 µM.
To `O=C(Nc1cccc(S(=O)(=O)N2CCCC2)c1)c1ccc2c(=O)n3c(nc2c1)CCCCC3` belongs > 50 µM (inactive); to `COC(=O)c1cc(C)sc1NC(=O)c1cccc(OC)c1OC`, > 50 µM (inactive).
For `CCCCOc1ccc(C(=O)Nc2ccc3c(c2)CCC(=O)N3CCC)cc1` the value was > 50 µM (inactive).
For `Cc1cc(-c2ccnc3c(C#N)cnn23)c(C)s1` the value was > 50 µM (inactive); for `CCCCNc1nc2c(-c3ccccc3)nnn2c2ccccc12`, > 50 µM (inactive).
For `O=C(NCc1ccc(Cl)cc1)Nc1cccc2ccccc12`, the IC50 is > 50 µM (inactive).
Take `Cc1nc(-c2noc3ccc(C(=O)Nc4cccnc4)cc23)cs1`: the half-maximal inhibitory concentration (IC50) is 42.4 µM.
For `CCn1ccc2c(cc(C(=O)Nc3ccccc3F)n2C)c1=O` the value was > 50 µM (inactive); for `O=C1c2c(O)c(Cl)cc3c2[C@@]2(Oc4cc(Cl)c(O)c5c4[C@]3(O2)[C@@H]2O[C@@H]2C5=O)[C@@H]2O[C@H]12`, 0.703 µM; for `CCCCN(CC)c1ncnc2c1sc1nc(-c3ccco3)c3c(c12)CC(C)(C)OC3`, > 50 µM (inactive).
To `O=C(/C=C/c1ccc(F)cc1)Nc1ccc2c(c1)OCCO2` belongs > 50 µM (inactive); to `CCCNc1cc(-c2ccccc2)nc2nc(-c3cccnc3)nn12`, > 50 µM (inactive); to `COc1cccc(NC(=O)Nc2nccn(-c3ccc(F)cc3)c2=O)c1`, 49.2 µM.
For the compound `Cc1ccc(NC(=O)c2sc(=S)n(CCc3ccccc3)c2N)cc1`, the half-maximal inhibitory concentration (IC50) is 18 µM.
With `Cc1ccc2c(c1)N=C(c1ccc([N+](=O)[O-])cc1)CO2`, the IC50 is > 50 µM (inactive).
For `CC12c3ccc4c(c3C(=O)c3occ(c31)C(=O)CC2O)CCC4=O` (configuration not stated) the value was > 50 µM (inactive).
To `CCN(CC)c1nc(F)c2c(c1F)S(=O)(=O)CCN2Cc1ccccc1` belongs > 50 µM (inactive); to `COc1cccc(NC(=O)Cc2sc(Nc3cc(C)cc(C)c3)nc2O)c1`, 22.4 µM; to `COc1cccc(/C=C/c2nc(C#N)c(N3CCN(C(=O)c4cccs4)CC3)o2)c1`, > 50 µM (inactive).
To `N[C@@H](Cc1ccccc1)C(=O)N1CCC2(CC1)CN(C(=O)c1ccc(Cl)cc1)CCO2` belongs > 50 µM (inactive); to `Cc1c(C)n(-c2ccccc2)c2ncn(CC(=O)NC(C)c3ccccc3)c(=O)c12` (configuration not stated), 21 µM; to `O=C(NCc1ccc(-c2nc3cnccc3o2)cc1)c1cc2ccccc2o1`, > 50 µM (inactive).
As for `COC(=O)c1cc2c(ccn2C)n1CC(=O)NC1CCCC1`, the IC50 was > 50 µM (inactive).
For `Cn1c(CCN2CCCC2)nc2cc(NS(=O)(=O)c3ccccc3)ccc21` the value was > 50 µM (inactive); for `Fc1cnc(N2CC[C@H]3CO[C@H](CNc4ncccn4)[C@H]3C2)nc1`, > 50 µM (inactive).
With `O=S1(=O)CCN(Cc2cccnc2)c2c(F)nc(N3CCOCC3)c(F)c21`, the IC50 was > 50 µM (inactive).
With `CC1=C(c2ccc(F)cc2)S(=O)(=O)N=C1Nc1ccc(Cl)cc1`, the IC50 is > 50 µM (inactive).
For `COCC(C)Nc1ncc(-c2cnccn2)c(-c2ccc(C)s2)n1` (configuration not stated) the value was > 50 µM (inactive); for `Cc1cc(NC(=O)Cn2c(=O)n(CCCCC(=O)NCc3ccco3)c(=O)c3ccccc32)ccc1Br`, 3.48 µM; for `CSc1nccc(-c2ccc(F)cc2)c1C#N`, > 50 µM (inactive).
To `CC(C)(C)C(=O)C1C2C(=O)N(c3ccc4c(c3)OCO4)C(=O)C2C2c3ccccc3C=CN12` (configuration not stated) belongs > 50 µM (inactive); to `CC(C(=O)NCc1ccc(F)cc1)n1cccc1C(=O)c1ccccc1` (configuration not stated), > 50 µM (inactive); to `COc1ccc(-c2cc3c(=O)n(CC(=O)NCCCN4CCCC4)ncn3n2)cc1`, > 50 µM (inactive).
With `C[C@@H]1O[C@@H](O[C@H]2[C@H](O[C@H]3[C@H](O[C@H]4CC[C@@]5(C)[C@@H](CC[C@]6(C)[C@@H]5CC=C5[C@@H]7CC(C)(C)CC(=O)[C@]7(C)CC[C@]56C)[C@@]4(C)CO)O[C@H](C(=O)O)[C@@H](O)[C@@H]3O)OC[C@@H](O)[C@@H]2O)[C@H](O)[C@H](O)[C@H]1O`, the IC50 is > 50 µM (inactive).
On to `Cc1ccc2cc3c(nc2n1)CCN(Cc1ccc(F)cc1)C3`, for which the IC50 was > 50 µM (inactive).
Take `COc1ccc(C2/C(=C(\O)c3ccccc3)C(=O)C(=O)N2c2nc3ccc(F)cc3s2)cc1` (configuration not stated): the 50% inhibitory concentration (IC50) was 33.8 µM.
To `O=C(Cc1cccc2ccccc12)Nc1nc2ccc(F)cc2s1` belongs > 50 µM (inactive); to `COc1cccc(/C=C/C(=O)Nc2ccc(C)c(Cl)c2)c1`, 45.5 µM.
For `CN1CCN(c2ncnc3c2oc2ccc(Cl)cc23)CC1` the value was > 50 µM (inactive); for `O=C(Nc1nc2ccccc2s1)c1ccc2c(c1)C(=O)N(Cc1cccnc1)C2=O`, 38.5 µM.
For `COC(=O)c1cc2c(ccn2C)n1CC(=O)NC1CC1`, the IC50 was > 50 µM (inactive).
For `Cc1nn(-c2ccc(Cl)cc2)c2[nH]c(=O)c(CNCC3CCCO3)cc12` (configuration not stated) the value was > 50 µM (inactive); for `COc1cccc(-n2c(=O)[nH]c3c(C(N)=O)nc(-c4ccc(OCc5ccccc5)cc4)nc32)c1`, > 50 µM (inactive).
Take `COc1cc2c(=O)n(CCC(=O)NCc3ccco3)c(=O)n(CC(=O)Nc3c(C)cccc3C)c2cc1OC`: the IC50 is > 50 µM (inactive).
For the compound `O=C(CCc1ccccc1)N(CC1CCCO1)c1nc2ccccc2s1` (configuration not stated), the IC50 was > 50 µM (inactive).
To `O=C(NC1CC1)c1ccnn1-c1ccc2ccc(-c3ccncc3)cn12` belongs > 50 µM (inactive); to `Cc1c(C)n(-c2ccccc2)c2ncn(CC(=O)N(C)Cc3ccccc3)c(=O)c12`, > 50 µM (inactive).
For `COc1ccccc1-c1nc(-c2nnn(Cc3ccc(C)cc3)c2C)no1` the value was > 50 µM (inactive); for `O=C1Nc2c(Cl)cc(Cl)cc2C1(O)c1sc(NC2CCCCC2)nc1-c1ccccc1` (configuration not stated), 29.4 µM; for `CCCc1nc2sc3c(NC4CCCCC4)ncnc3c2c2c1CCC2`, > 50 µM (inactive).
As for `CCc1ccc(OCc2nnc(SCC(=O)Nc3ccccc3OC)n2Cc2ccccc2)cc1`, the IC50 is > 50 µM (inactive).
For the compound `COc1ccc(C(C)=O)cc1CC(=O)Nc1nc2ccccc2[nH]1`, the IC50 was > 50 µM (inactive).
On to `COc1cc(C2SCC(=O)Nc3c2c(-c2ccccc2)nn3-c2ccccc2)cc(OC)c1OC` (configuration not stated), for which the IC50 was > 50 µM (inactive).
For `Cc1cc(C)nc(SCCn2c(N3CCC(Cc4ccccc4)CC3)nc3c2c(=O)n(C)c(=O)n3C)n1` the value was > 50 µM (inactive); for `CCc1ccc(-c2nc(SCC(=O)Nc3ccc4[nH]c(=O)[nH]c4c3)n[nH]2)cc1`, 40.7 µM; for `Cc1nc2nc(SCc3nc4ccccc4n3C)[nH]c2cc1Br`, > 50 µM (inactive).
Turning to `CC1(C)Cc2c(sc3nc(Cc4ccccc4)nc(SCC(=O)Nc4ccccc4)c23)CO1`, the IC50 is 6.75 µM.
Regarding `COc1cccc(-n2nnc(C(=O)Nc3ccc(C)c(C)c3)c2C)c1`, the IC50 is > 50 µM (inactive).
To `Cc1nc(CN2CCn3c(Cn4cccn4)cnc3C2C)cs1` (configuration not stated) belongs > 50 µM (inactive); to `COc1ccc(C(=O)Nc2cc(F)c3nc(N4CCOCC4)ccc3c2)c(OC)c1`, > 50 µM (inactive); to `O=c1c2cnc(N3CCOCC3)nc2ccn1CCc1ccccc1`, 28 µM.
Consider `Cc1ccccc1Cn1ccc2ccn(Cc3cccnc3)c2c1=O`, for which the IC50 was > 50 µM (inactive).
With `CCOc1ccc2nc(NC(=O)C3CCN(S(=O)(=O)c4ccc5c(c4)CC(C)N5C(C)=O)CC3)sc2c1` (configuration not stated), the IC50 is > 50 µM (inactive).
For `Cc1ccc(NC(=O)CSc2nc3c(cc2C#N)C(=O)CCC3)cc1` the value was 30.2 µM; for `COc1ccc(-n2ccc(=O)c(-c3nc(-c4ccccc4F)no3)n2)cc1OC`, > 50 µM (inactive).
To `CC(C)c1nc2sc3c(NCc4ccco4)ncnc3c2c2c1CCC2` belongs > 50 µM (inactive); to `O=C(COc1ccc(F)cc1)Nc1cc(F)c2nc(N3CCOCC3)ccc2c1`, > 50 µM (inactive); to `Cc1ccccc1C(=O)NCCn1cc(SCC(=O)Nc2ccc3c(c2)OCCO3)c2ccccc21`, > 50 µM (inactive).
`CCOC(=O)c1cc2c(ccn2C)n1CC(=O)N1CCc2ccccc2C1`: the IC50 was > 50 µM (inactive).
Take `O=C(Nc1nnc2n1CCCS2)c1cccc(Cl)c1`: the IC50 was > 50 µM (inactive).
To `CC1CS(=O)(=O)N(c2ccc(C(=O)Nc3ccc4c(c3)OCCO4)cc2)C1=O` (configuration not stated) belongs 28.5 µM; to `CC[C@H](C)C[C@H]1CC[C@](O)([C@](C)(O)C(=O)N[C@@H]2C(=O)N3NCCC[C@@H]3C(=O)N(O)[C@@H](C)C(=O)NCC(=O)N3NCCC[C@H]3C(=O)N(O)[C@H](C)C(=O)O[C@H]2C(C)C)O[C@@H]1C`, 2.18 µM.
For `Cc1cccc(NC(=O)Cn2c(=O)n(Cc3ccc(F)cc3)c(=O)c3sccc32)c1` the value was 17.5 µM.
